Assay results reported in patent publication US20230069886A1, “AROMATIC SULPHONAMIDES DERIVATIVES THAT INHIBITS PDI A3, THEIR SYNTHESIS AND USE” (Uniwersytet Jagiellonski, priority 2020, published 2023).

Key:
PDI A3 = molecular target: T1, PDI A3 (Homo sapiens, UniProt P30101); experiment: PDI A3 inhibition, insulin turbidimetric assay; format: biochemical; conditions: 10 ug/ml PDI A3, incubated 60 min at 37° C., turbidity at 650 nm; read-out: Inhibition of PDI A3 (EC 50)
T1 construct: purchased Mybiosource; host or cells: E. coli
T1 sequence (P30101 25-505): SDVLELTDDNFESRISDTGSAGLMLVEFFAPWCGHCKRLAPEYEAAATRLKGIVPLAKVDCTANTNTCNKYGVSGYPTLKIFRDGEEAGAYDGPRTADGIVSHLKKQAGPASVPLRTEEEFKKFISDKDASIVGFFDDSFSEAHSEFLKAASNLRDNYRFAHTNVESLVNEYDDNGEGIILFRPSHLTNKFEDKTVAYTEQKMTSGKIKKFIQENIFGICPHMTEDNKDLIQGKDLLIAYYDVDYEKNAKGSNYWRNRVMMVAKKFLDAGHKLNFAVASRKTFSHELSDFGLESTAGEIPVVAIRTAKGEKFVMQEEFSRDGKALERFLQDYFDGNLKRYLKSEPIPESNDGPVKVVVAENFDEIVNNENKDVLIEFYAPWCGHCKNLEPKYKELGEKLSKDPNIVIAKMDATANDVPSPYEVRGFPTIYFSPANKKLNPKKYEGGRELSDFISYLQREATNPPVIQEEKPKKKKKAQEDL
Experimental: The inhibitory effects compounds of invention on activity of PDIA3 was assess based on the insulin turbidimetric assay. Enzymatic activity of PDIA3 was confirmed by measuring the turbidity increase at 650 nm due to insulin reduction. The assay mixture was prepared by addition 10 ug/ml PDI A3 (E. coli recombinant protein; Mybiosource), […] phosphate buffer (pH7.6), 1 mM EDTA, 0.087 mM DTT and with or without tested compound and was incubated for 60 min, at 37° C. Reaction was started by addition of insulin and DTT. Final concentration of insulin and DTT in assay mixture were 0.15 mMv and 0.174 mMv, respectively. Turbidity was detected at 650 nm against reference samples without PDJs. The measurements were performed at 650 nm using 120-s recordings.

Row | EC50 (PDI A3) [µM] | melting point [°C] | Compound
1 | 27 |  | COC(=O)C1CN1S(=O)(=O)c1ccc(C)cc1 (centres unmarked) [Compound C-3161, Methyl 1-(p-tolylsulfonyl)aziridine-2-carboxylate]
2 | 32 | 106 to 108 | COC(=O)C1CN1S(=O)(=O)c1ccc([N+](=O)[O-])cc1 (centres unmarked) [Compound C-3212, Methyl 1-(4-nitrophenyl)sulfonylaziridine-2-carboxylate]
3 |  | 139 to 141 | NC(=O)C1CN1S(=O)(=O)c1ccc(N)cc1 (centres unmarked) [Compound C-3218, 1-(4-Aminophenyl)sulfonylaziridine-2-carboxamide]
4 | > 200 |  | COC(=O)C1CN1S(=O)(=O)c1ccc(C(F)(F)F)cc1 (centres unmarked) [Compound C-3256, Methyl 1-[4-(trifluoromethyl)phenyl]sulfonylaziridine-2-carboxylate]
5 | > 200 |  | CCCCCCCCCCCCc1ccc(S(=O)(=O)N2CC2C(=O)OC)cc1 (centres unmarked) [Compound C-3270, Methyl 1-(4-dodecylphenyl)sulfonylaziridine-2-carboxylate]
6 | > 200 |  | COC(=O)C1CN1S(=O)(=O)c1ccc(C)cc1F (centres unmarked) [Compound C-3297, Methyl 1-(2-fluoro-4-methyl-phenyl)sulfonylaziridine-2-carboxylate]
7 | 90 |  | COC(=O)C1CN1S(=O)(=O)c1cccc2ccccc12 (centres unmarked) [Compound C-3311, Methyl 1-(1-naphthylsulfonyl)aziridine-2-carboxylate]
8 | 24 |  | Cc1ccc(S(=O)(=O)N2CC2C#N)cc1 (centres unmarked) [Compound C-3314, 1-(p-Tolylsulfonyl)aziridine-2-carbonitrile]
9 | 143 |  | COC(=O)C1CN1S(=O)(=O)c1ccc(F)cc1F (centres unmarked) [Compound C-3353, Methyl 1-(2,4-difluorophenyl)sulfonylaziridine-2-carboxylate]
10 | 11.7 |  | CN(C)C(=O)C1CN1S(=O)(=O)c1ccc(C2CCCCC2)cc1 (centres unmarked) [Compound C-3384, 1-(4-Cyclohexylphenyl)sulfonyl-N,N-dimethyl-aziridine-2-carboxamide]
11 | 27 | 170 to 172 | CNc1ccc2cc(S(=O)(=O)N3CC3C(=O)OC)ccc2c1Cl (centres unmarked) [Compound C-3393, Methyl 1-[[5-chloro-6-(methylamino)-2-naphthyl]sulfonyl]aziridine-2-carboxylate]
12 | 10.5 |  | CN(C)C(=O)C1CN1S(=O)(=O)c1ccc2cc(N(C)C)ccc2c1 (centres unmarked) [Compound C-3398, 1-[[6-(Dimethylamino)-2-naphthyl]sulfonyl]-N,N-dimethylaziridine-2-carboxamide]
13 | 24 |  | CN(C)C(=O)C1CN1S(=O)(=O)c1ccc(F)cc1F (centres unmarked) [Compound C-3403, 1-(2,4-Difluorophenyl)sulfonyl-N,N-dimethyl-aziridine-2-carboxamide]
14 | 9.3 |  | NC(=O)C1CN1S(=O)(=O)c1ccccc1 (centres unmarked) [Compound C-3532, 1-(Benzenesulfonyl)aziridine-2-carboxamide]
15 | 6.8 |  | COC(=O)[C@@H]1CN1S(=O)(=O)c1ccc(C)cc1 (stereo partly drawn) [Compound C-3535, Methyl (2S)-1-(p-tolylsulfonyl)aziridine-2-carboxylate]
16 | 30 |  | CCOC(=O)C1CN1S(=O)(=O)c1ccc(C)cc1 (centres unmarked) [Compound C-3537, Ethyl 1-(p-tolylsulfonyl)aziridine-2-carboxylate]
17 | 5.3 |  | COC(=O)[C@@H]1CN1S(=O)(=O)c1cccc2cc(N(C)C)ccc12 (stereo partly drawn) [Compound C-3548, Methyl (2S)-1-[[6-(dimethylamino)-1-naphthyl]sulfonyl]aziridine-2-carboxylate]
18 | 56 | 147 to 149 | NC(=O)C1CN1S(=O)(=O)c1cccnc1 (centres unmarked) [Compound C-3562, 1-(3-pyridylsulfonyl)aziridine-2-carboxamide]

Further lines, the compound ahead of its results:

Row | Compound | EC50 (PDI A3) [µM] | melting point [°C]
19 | Cc1ccc(S(=O)(=O)N2CC2C(N)=O)cc1 (centres unmarked) [Compound C-3220, 1-(p-Tolylsulfonyl)aziridine-2-carboxamide] | 22 | 
20 | CC(=O)C1CN1S(=O)(=O)c1ccc(C)cc1 (centres unmarked) [Compound C-3263, 1-[1-(p-Tolylsulfonyl)aziridin-2-yl]ethanone] | 98 | 
21 | CCCCc1ccc(S(=O)(=O)N2CC2C(C)=O)cc1 (centres unmarked) [Compound C-3272, 1-[1-(4-Butylphenyl)sulfonylaziridin-2-yl]ethanone] | 43 | 
22 | CCCCCc1ccc(S(=O)(=O)N2CC2C(=O)OC)cc1 (centres unmarked) [Compound C-3281, Methyl 1-(4-pentylphenyl)sulfonylaziridine-2-carboxylate] | > 200 | 
23 | COC(=O)C1CN1S(=O)(=O)c1cccc(C)c1 (centres unmarked) [Compound C-3303, Methyl 1-(m-tolylsulfonyl)aziridine-2-carboxylate] | > 200 | 
24 | COC(=O)C1CN1S(=O)(=O)c1cccc(C(F)(F)F)c1 (centres unmarked) [Compound C-3305, Methyl 1-[3-(trifluoromethyl)phenyl]sulfonylaziridine-2-carboxylate] | > 200 | 
25 | COC(=O)C1CN1S(=O)(=O)c1ccc2[nH]c(=O)ccc2c1 (centres unmarked) [Compound C-3350, Methyl 1-[(2-oxo-1H-quinolin-6-yl)sulfonyl]aziridine-2-carboxylate] | 48 | 139 to 141
26 | COC(=O)C1CN1S(=O)(=O)c1ccc2oc(=O)ccc2c1 (centres unmarked) [Compound C-3355, Methyl 1-(2-oxochromen-6-yl)sulfonylaziridine-2-carboxylate] | 61 | 42 to 44
27 | CN(C)C(=O)C1CN1S(=O)(=O)c1ccc(N(C)C)cc1 (centres unmarked) [Compound C-3357, 1-[4-(Dimethylamino)phenyl]sulfonyl-N,N-dimethyl-aziridine-2-carboxamide] | > 200 | 
28 | CCCCCCc1ccc(S(=O)(=O)N2CC2C(=O)NC)cc1 (centres unmarked) [Compound C-3380, 1-(4-Hexylphenyl)sulfonyl-N-methyl-aziridine-2-carboxamide] | 37 | 
29 | CN(C)C(=O)C1CN1S(=O)(=O)c1ccc(N(C)C)c2ccccc12 (centres unmarked) [Compound C-3385, 1-[[4-(Dimethylamino)-1-naphthyl]sulfonyl]-N,N-dimethylaziridine-2-carboxamide] | 11.1 | 
30 | CCCCCCc1ccc(S(=O)(=O)N2CC2C(=O)N2CCCC2)cc1 (centres unmarked) [Compound C-3511, [1-(4-Hexylphenyl)sulfonylaziridin-2-yl]-pyrrolidin-1-yl-methanone] | 102 | 
31 | COC(=O)C1CN1S(=O)(=O)c1cccnc1 (centres unmarked) [Compound C-3559, Methyl 1-(3-pyridylsulfonyl)aziridine-2-carboxylate] | 18.6 | 
32 | COC(=O)[C@H]1CN1S(=O)(=O)c1cccc2cc(N(C)C)ccc12 (stereo partly drawn) [Compound C-3570, Methyl (2R)-1-[[6-(dimethylamino)-1-naphthyl]sulfonyl]aziridine-2-carboxylate] | 68.4 | 
33 | CC(C)(C)c1ccc(S(=O)(=O)N2CC2C(N)=O)cc1 (centres unmarked) [Compound C-3591, 1-(4-tert-Butylphenyl)sulfonylaziridine-2-carboxamide] | 29 | 
